Measurements taken from the supplement of paper PMC6045584.
± gives the standard deviation of the averaged measurements.

Columns and labels:
[1] = compound: COc1ccc(-c2cc3c(C)nc(N)nc3n([C@H]3CC[C@H](OCCO)CC3)c2=O)cn1; experiment: surviving fraction relative to DMSO-only wells; higher = less growth inhibition; conditions: exposure time: 5 days
In short: (§1)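 A line counted only if its three screens reached replicate Pearson r >0.7 and median Z' >0.3. Tumour cells in log phase were seeded at 250–500 per well in 384-well plates and, after 24 hours, kept in continuous contact with inhibitors at 0.5, 1, 5, 10, 50, 100, 500 and 1000 nM for five days. Surviving fraction was taken from CellTiter-Glo luminescence relative to the median of DMSO-only wells.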

IMATINIB = compound: Cc1ccc(NC(=O)c2ccc(CN3CCN(C)CC3)cc2)cc1Nc1nccc(-c2cccnc2)n1 [IMATINIB]; experiment: as above; conditions: exposure time: 5 days
In short: as §1

SNU475 LIVER showed a surviving fraction ([1]; 0.5 nM) of 0.94 ± 0.013, a surviving fraction ([1]; 1 nM) of 0.951 ± 0.022 and a surviving fraction ([1]; 5 nM) of 0.891 ± 0.041. For the same test system, the surviving fraction ([1]; 10 nM) was 0.865 ± 0.012, the surviving fraction ([1]; 50 nM) was 0.625 ± 0.014 and the surviving fraction ([1]; 100 nM) was 0.404 ± 0.036. It also gave a surviving fraction ([1]; 500 nM) of 0.127 ± 0.0076, a surviving fraction ([1]; 1000 nM) of 0.0823 ± 0.0011 and a surviving fraction (IMATINIB; 0.5 nM) of 1.04 ± 0.086. It also gave a surviving fraction (IMATINIB; 5 nM) of 1.06 ± 0.036, a surviving fraction (IMATINIB; 10 nM) of 1.07 ± 0.019 and a surviving fraction (IMATINIB; 50 nM) of 1.09 ± 0.0085. For the same test system, the surviving fraction (IMATINIB; 500 nM) was 1.06 ± 0.045.
SUM44 BREAST was tested, and the surviving fraction ([1]; 0.5 nM) was 0.914 ± 0.026, the surviving fraction ([1]; 1 nM) was 0.974 ± 0.044 and the surviving fraction ([1]; 5 nM) was 1.01 ± 0.027. The surviving fraction ([1]; 10 nM) was 0.957 ± 0.04, the surviving fraction ([1]; 50 nM) was 0.864 ± 0.043 and the surviving fraction ([1]; 100 nM) was 0.747 ± 0.017. For the same test system, the surviving fraction ([1]; 500 nM) was 0.225 ± 0.028, the surviving fraction ([1]; 1000 nM) was 0.151 ± 0.0051 and the surviving fraction (IMATINIB; 0.5 nM) was 1.3 ± 0.48. For the same test system, the surviving fraction (IMATINIB; 5 nM) was 1.24 ± 0.36, the surviving fraction (IMATINIB; 10 nM) was 1.23 ± 0.28 and the surviving fraction (IMATINIB; 50 nM) was 1.27 ± 0.31. The surviving fraction (IMATINIB; 500 nM) was 1.26 ± 0.34 and the surviving fraction (IMATINIB; 1000 nM) was 1.11 ± 0.23.
In the case of SUM149 BREAST, the surviving fraction ([1]; 0.5 nM) is reported as 1.02 ± 0.042, the surviving fraction ([1]; 1 nM) is reported as 1.1 ± 0.1 and the surviving fraction ([1]; 5 nM) is reported as 0.963 ± 0.067. The surviving fraction ([1]; 10 nM) was 0.9127 ± 0.0085, the surviving fraction ([1]; 50 nM) was 0.697 ± 0.036 and the surviving fraction ([1]; 100 nM) was 0.474 ± 0.03. For the same test system, the surviving fraction ([1]; 500 nM) was 0.161 ± 0.0021, the surviving fraction ([1]; 1000 nM) was 0.0763 ± 0.0038 and the surviving fraction (IMATINIB; 0.5 nM) was 1.04 ± 0.08. For the same test system, the surviving fraction (IMATINIB; 1 nM) was 1.11 ± 0.047, the surviving fraction (IMATINIB; 5 nM) was 1.07 ± 0.079 and the surviving fraction (IMATINIB; 10 nM) was 1.08 ± 0.072. For the same test system, the surviving fraction (IMATINIB; 100 nM) was 0.951 ± 0.07, the surviving fraction (IMATINIB; 500 nM) was 0.866 ± 0.045 and the surviving fraction (IMATINIB; 1000 nM) was 1.01 ± 0.046.
SUM149.B1*.S BREAST gave a surviving fraction ([1]; 0.5 nM) of 0.985 ± 0.03, a surviving fraction ([1]; 1 nM) of 1.02 ± 0.059 and a surviving fraction ([1]; 5 nM) of 1.02 ± 0.032. It also gave a surviving fraction ([1]; 10 nM) of 0.995 ± 0.037, a surviving fraction ([1]; 50 nM) of 0.924 ± 0.011 and a surviving fraction ([1]; 100 nM) of 0.823 ± 0.03. For the same test system, the surviving fraction ([1]; 500 nM) was 0.475 ± 0.014, the surviving fraction ([1]; 1000 nM) was 0.339 ± 0.017 and the surviving fraction (IMATINIB; 0.5 nM) was 1.12 ± 0.041. It also gave a surviving fraction (IMATINIB; 1 nM) of 1.11 ± 0.036, a surviving fraction (IMATINIB; 5 nM) of 1.15 ± 0.04 and a surviving fraction (IMATINIB; 10 nM) of 1.19 ± 0.035. The surviving fraction (IMATINIB; 50 nM) was 1.19 ± 0.039, the surviving fraction (IMATINIB; 100 nM) was 1.15 ± 0.038 and the surviving fraction (IMATINIB; 500 nM) was 1.19 ± 0.051. It also gave a surviving fraction (IMATINIB; 1000 nM) of 1.18 ± 0.061.
SUM159 BREAST was tested, and the surviving fraction ([1]; 0.5 nM) was 1.1 ± 0.16, the surviving fraction ([1]; 1 nM) was 1.12 ± 0.18 and the surviving fraction ([1]; 5 nM) was 1.1 ± 0.17. It also gave a surviving fraction ([1]; 10 nM) of 1.1 ± 0.17, a surviving fraction ([1]; 50 nM) of 1.05 ± 0.074 and a surviving fraction ([1]; 100 nM) of 0.839 ± 0.036. The surviving fraction ([1]; 500 nM) was 0.181 ± 0.014, the surviving fraction ([1]; 1000 nM) was 0.119 ± 0.006 and the surviving fraction (IMATINIB; 1 nM) was 1.11 ± 0.015. It also gave a surviving fraction (IMATINIB; 5 nM) of 1.11 ± 0.024, a surviving fraction (IMATINIB; 10 nM) of 1.101 ± 0.0045 and a surviving fraction (IMATINIB; 50 nM) of 1.126 ± 0.009. For the same test system, the surviving fraction (IMATINIB; 500 nM) was 1.14 ± 0.02.
SYO1 SYNOVIAL showed a surviving fraction ([1]; 0.5 nM) of 0.961 ± 0.013, a surviving fraction ([1]; 1 nM) of 0.912 ± 0.021 and a surviving fraction ([1]; 5 nM) of 0.895 ± 0.061. The surviving fraction ([1]; 10 nM) was 0.825 ± 0.041, the surviving fraction ([1]; 50 nM) was 0.557 ± 0.0083 and the surviving fraction ([1]; 100 nM) was 0.386 ± 0.035. The surviving fraction ([1]; 500 nM) was 0.118 ± 0.028, the surviving fraction ([1]; 1000 nM) was 0.0698 ± 0.019 and the surviving fraction (IMATINIB; 0.5 nM) was 1.03 ± 0.05. It also gave a surviving fraction (IMATINIB; 1 nM) of 1.02 ± 0.028, a surviving fraction (IMATINIB; 5 nM) of 0.987 ± 0.037 and a surviving fraction (IMATINIB; 10 nM) of 0.955 ± 0.031. It also gave a surviving fraction (IMATINIB; 50 nM) of 0.921 ± 0.035, a surviving fraction (IMATINIB; 100 nM) of 0.898 ± 0.017 and a surviving fraction (IMATINIB; 500 nM) of 0.88 ± 0.056. It also gave a surviving fraction (IMATINIB; 1000 nM) of 0.888 ± 0.023.
Work on T47D BREAST yielded a surviving fraction ([1]; 0.5 nM) of 0.993 ± 0.043, a surviving fraction ([1]; 1 nM) of 0.975 ± 0.021 and a surviving fraction ([1]; 5 nM) of 0.959 ± 0.02. The surviving fraction ([1]; 10 nM) was 0.913 ± 0.013, the surviving fraction ([1]; 50 nM) was 0.638 ± 0.018 and the surviving fraction ([1]; 100 nM) was 0.414 ± 0.022. The surviving fraction ([1]; 500 nM) was 0.196 ± 0.0079, the surviving fraction ([1]; 1000 nM) was 0.148 ± 0.0018 and the surviving fraction (IMATINIB; 0.5 nM) was 1.08 ± 0.042. The surviving fraction (IMATINIB; 1 nM) was 1.05 ± 0.016, the surviving fraction (IMATINIB; 5 nM) was 1.1 ± 0.02 and the surviving fraction (IMATINIB; 10 nM) was 1.05 ± 0.066. It also gave a surviving fraction (IMATINIB; 50 nM) of 1.13 ± 0.027, a surviving fraction (IMATINIB; 100 nM) of 1.08 ± 0.036 and a surviving fraction (IMATINIB; 500 nM) of 1.1 ± 0.068. For the same test system, the surviving fraction (IMATINIB; 1000 nM) was 1.07 ± 0.056.
Work on U2OS BONE yielded a surviving fraction ([1]; 0.5 nM) of 0.98 ± 0.036, a surviving fraction ([1]; 1 nM) of 1.02 ± 0.019 and a surviving fraction ([1]; 5 nM) of 0.9927 ± 0.0096. It also gave a surviving fraction ([1]; 10 nM) of 0.92 ± 0.05, a surviving fraction ([1]; 50 nM) of 0.794 ± 0.044 and a surviving fraction ([1]; 100 nM) of 0.693 ± 0.029. It also gave a surviving fraction ([1]; 500 nM) of 0.277 ± 0.0042, a surviving fraction ([1]; 1000 nM) of 0.202 ± 0.0051 and a surviving fraction (IMATINIB; 0.5 nM) of 1.06 ± 0.021. It also gave a surviving fraction (IMATINIB; 1 nM) of 1.02 ± 0.033, a surviving fraction (IMATINIB; 5 nM) of 1.07 ± 0.028 and a surviving fraction (IMATINIB; 10 nM) of 1.05 ± 0.028. It also gave a surviving fraction (IMATINIB; 50 nM) of 1.09 ± 0.026, a surviving fraction (IMATINIB; 100 nM) of 1.113 ± 0.0058 and a surviving fraction (IMATINIB; 500 nM) of 1.15 ± 0.027. It also gave a surviving fraction (IMATINIB; 1000 nM) of 1.15 ± 0.018.
For VCAP PROSTATE, the surviving fraction ([1]; 0.5 nM) was 1.01 ± 0.05, the surviving fraction ([1]; 1 nM) was 1.08 ± 0.04 and the surviving fraction ([1]; 5 nM) was 1.06 ± 0.14. It also gave a surviving fraction ([1]; 10 nM) of 0.983 ± 0.056, a surviving fraction ([1]; 50 nM) of 0.706 ± 0.027 and a surviving fraction ([1]; 100 nM) of 0.52 ± 0.023. It also gave a surviving fraction ([1]; 500 nM) of 0.161 ± 0.013, a surviving fraction ([1]; 1000 nM) of 0.0997 ± 0.016 and a surviving fraction (IMATINIB; 0.5 nM) of 1.11 ± 0.19. For the same test system, the surviving fraction (IMATINIB; 1 nM) was 0.949 ± 0.15, the surviving fraction (IMATINIB; 10 nM) was 1.17 ± 0.035 and the surviving fraction (IMATINIB; 50 nM) was 1.22 ± 0.12. The surviving fraction (IMATINIB; 100 nM) was 1.12 ± 0.13 and the surviving fraction (IMATINIB; 1000 nM) was 1.05 ± 0.086.
VP229 BREAST was tested, and the surviving fraction ([1]; 0.5 nM) was 1.13 ± 0.11, the surviving fraction ([1]; 1 nM) was 1.07 ± 0.062 and the surviving fraction ([1]; 5 nM) was 0.948 ± 0.046. For the same test system, the surviving fraction ([1]; 10 nM) was 0.844 ± 0.032, the surviving fraction ([1]; 50 nM) was 0.513 ± 0.078 and the surviving fraction ([1]; 100 nM) was 0.383 ± 0.071. For the same test system, the surviving fraction ([1]; 500 nM) was 0.135 ± 0.02, the surviving fraction ([1]; 1000 nM) was 0.0757 ± 0.018 and the surviving fraction (IMATINIB; 0.5 nM) was 1.29 ± 0.17. For the same test system, the surviving fraction (IMATINIB; 1 nM) was 1.22 ± 0.091, the surviving fraction (IMATINIB; 5 nM) was 1.12 ± 0.098 and the surviving fraction (IMATINIB; 10 nM) was 1.2 ± 0.3. The surviving fraction (IMATINIB; 50 nM) was 1.35 ± 0.1, the surviving fraction (IMATINIB; 500 nM) was 1.16 ± 0.064 and the surviving fraction (IMATINIB; 1000 nM) was 1.27 ± 0.12.
For YAMATO SYNOVIAL, the surviving fraction ([1]; 0.5 nM) was 1.15 ± 0.087, the surviving fraction ([1]; 1 nM) was 1.09 ± 0.066 and the surviving fraction ([1]; 5 nM) was 1.01 ± 0.073. For the same test system, the surviving fraction ([1]; 10 nM) was 0.952 ± 0.057, the surviving fraction ([1]; 50 nM) was 0.469 ± 0.062 and the surviving fraction ([1]; 100 nM) was 0.355 ± 0.0076. The surviving fraction ([1]; 500 nM) was 0.189 ± 0.014, the surviving fraction ([1]; 1000 nM) was 0.272 ± 0.012 and the surviving fraction (IMATINIB; 0.5 nM) was 1.29 ± 0.055. The surviving fraction (IMATINIB; 1 nM) was 1.19 ± 0.14, the surviving fraction (IMATINIB; 5 nM) was 1.28 ± 0.14 and the surviving fraction (IMATINIB; 10 nM) was 1.26 ± 0.078. It also gave a surviving fraction (IMATINIB; 50 nM) of 1.23 ± 0.054, a surviving fraction (IMATINIB; 100 nM) of 1.27 ± 0.15 and a surviving fraction (IMATINIB; 500 nM) of 1.1 ± 0.11. It also gave a surviving fraction (IMATINIB; 1000 nM) of 1.05 ± 0.073.
